Results taken from patent US20100048696A1, “AGRICULTURAL DISEASE CONTROL AGENT” (Idemitsu Kosan Co., Ltd., priority 2007, published 2010).
Like-named read-outs stand apart in the source and are kept apart here.

Legend:
[1] = test system: Erwinia carotovora var. cartovora; experiment: Basic test: cutting knife disinfection, blackleg pathogens; assay type: cell-based; conditions: knife immersed 5 seconds
[2] = test system: Clavibacter michiganense subsp. Nebraskense (ATCC27822); experiment: Basic test: cutting knife disinfection, ring rot pathogens; assay type: cell-based; conditions: knife immersed 5 seconds
[3] = test system: Erwinia carotovora var. cartovora; experiment: Test using potatoes: blackleg pathogenesis after cutting with disinfected knife; assay type: in vivo, potatoes Norin No. 1; conditions: for Degree of pathogenesis: knife immersed 5 seconds at 5° C., average of 5 potatoes, about two months after seeding
[4] = test system: Erwinia chrysanthemi; experiment: Material disinfection test; assay type: cell-based; conditions: 5 minutes
[5] = test system: Burkholderia plantarii; experiment: Material disinfection test; assay type: cell-based; conditions: 5 minutes
[6] = test system: Burkholderia glumae; experiment: Material disinfection test; assay type: cell-based; conditions: 5 minutes
[7] = test system: Ralstonia solanacearum; assay type: cell-based; conditions: 5 minutes
[8] = test system: Pythium ultimum; experiment: Material disinfection test; assay type: cell-based; conditions: 5 minutes
[9] = test system: Fusarium oxysporum; experiment: Material disinfection test; assay type: cell-based; conditions: 5 minutes
[10] = test system: Rhizoctonia solani; experiment: Material disinfection test; assay type: cell-based; conditions: 5 minutes
[11] = test system: Pyricularia oryzae; assay type: cell-based; conditions: 5 minutes
[12] = test system: Botrytis cinerea; experiment: Material disinfection test; assay type: cell-based; conditions: 5 minutes
[13] = test system: bacteria pathogens and filamentous fungi pathogens; assay type: cell-based

O=C(O)/C=C\C(=O)O [Maleic acid]
sterilization of blackleg pathogens (in words) ([1]; 2 to 10 times solutions): complete sterilization
sterilization effect on blackleg pathogens (in words) ([1]; 25 to 50 times solutions): high sterilization effect
sterilization of ring rot pathogens (in words) ([2]; 2 to 10 times solutions): complete sterilization
sterilization effect on ring rot pathogens (in words) ([2]; 25 to 50 times solutions): high sterilization effect
Degree of pathogenesis ([3]; 5 times solution): 0
sterilization in test using potatoes (in words) ([3]; 5 to 10 times solution): complete sterilization
Degree of pathogenesis ([3]; 10 times solution): 0
sterilization effect in test using potatoes (in words) ([3]; 50 times solution): high sterilization effect
Degree of pathogenesis ([3]; 50 times solution): 3 (20 to less than 40%)
Average value of viable bacteria counts on all materials examined ([4]; 2 times solution sprayed): 0 cfu/ml
Average value of viable bacteria counts on all materials examined ([4]; 5 times solution sprayed): 0 cfu/ml
Average value of viable bacteria counts on all materials examined ([4]; 25 times solution sprayed): 0 cfu/ml
Average value of viable bacteria counts on all materials examined ([4]; 50 times solution sprayed): 0 cfu/ml
Average value of viable bacteria counts on all materials examined ([4]; 100 times solution sprayed): 0 cfu/ml
Average value of viable bacteria counts on all materials examined ([4]; 200 times solution sprayed): 53 cfu/ml
Average value of viable bacteria counts on all materials examined ([4]; 500 times solution sprayed): 3.5 × 10^3 cfu/ml
Average value of viable bacteria counts on all materials examined ([5]; 2 times solution sprayed): 0 cfu/ml
Average value of viable bacteria counts on all materials examined ([5]; 5 times solution sprayed): 0 cfu/ml
Average value of viable bacteria counts on all materials examined ([5]; 25 times solution sprayed): 0 cfu/ml
Average value of viable bacteria counts on all materials examined ([5]; 50 times solution sprayed): 0 cfu/ml
Average value of viable bacteria counts on all materials examined ([5]; 100 times solution sprayed): 0 cfu/ml
Average value of viable bacteria counts on all materials examined ([5]; 200 times solution sprayed): 65 cfu/ml
Average value of viable bacteria counts on all materials examined ([5]; 500 times solution sprayed): 1.5 × 10^2 cfu/ml
Average value of viable bacteria counts on all materials examined ([6]; 2 times solution sprayed): 0 cfu/ml
Average value of viable bacteria counts on all materials examined ([6]; 5 times solution sprayed): 0 cfu/ml
Average value of viable bacteria counts on all materials examined ([6]; 25 times solution sprayed): 0 cfu/ml
Average value of viable bacteria counts on all materials examined ([6]; 50 times solution sprayed): 0 cfu/ml
Average value of viable bacteria counts on all materials examined ([6]; 100 times solution sprayed): 0 cfu/ml
Average value of viable bacteria counts on all materials examined ([6]; 200 times solution sprayed): 93 cfu/ml
Average value of viable bacteria counts on all materials examined ([6]; 500 times solution sprayed): 5.0 × 10^3 cfu/ml
Average value of viable bacteria counts on all materials examined ([7]; 2 times solution sprayed): 0 cfu/ml
Average value of viable bacteria counts on all materials examined ([7]; 5 times solution sprayed): 0 cfu/ml
Average value of viable bacteria counts on all materials examined ([7]; 25 times solution sprayed): 0 cfu/ml
Average value of viable bacteria counts on all materials examined ([7]; 50 times solution sprayed): 0 cfu/ml
Average value of viable bacteria counts on all materials examined ([7]; 100 times solution sprayed): 0 cfu/ml
Average value of viable bacteria counts on all materials examined ([7]; 200 times solution sprayed): 18 cfu/ml
Average value of viable bacteria counts on all materials examined ([7]; 500 times solution sprayed): 1.0 × 10^2 cfu/ml
average value of viable filamentous fungi counts on all materials examined ([8]; 2 times solution sprayed): 0 cfu/ml
average value of viable filamentous fungi counts on all materials examined ([8]; 5 times solution sprayed): 0 cfu/ml
average value of viable filamentous fungi counts on all materials examined ([8]; 25 times solution sprayed): 0 cfu/ml
average value of viable filamentous fungi counts on all materials examined ([8]; 50 times solution sprayed): 0 cfu/ml
average value of viable filamentous fungi counts on all materials examined ([8]; 100 times solution sprayed): 0 cfu/ml
average value of viable filamentous fungi counts on all materials examined ([8]; 200 times solution sprayed): 73 cfu/ml
average value of viable filamentous fungi counts on all materials examined ([8]; 500 times solution sprayed): 3.1 × 10^3 cfu/ml
average value of viable filamentous fungi counts on all materials examined ([9]; 2 times solution sprayed): 0 cfu/ml
average value of viable filamentous fungi counts on all materials examined ([9]; 5 times solution sprayed): 0 cfu/ml
average value of viable filamentous fungi counts on all materials examined ([9]; 25 times solution sprayed): 0 cfu/ml
average value of viable filamentous fungi counts on all materials examined ([9]; 50 times solution sprayed): 0 cfu/ml
average value of viable filamentous fungi counts on all materials examined ([9]; 100 times solution sprayed): 0 cfu/ml
average value of viable filamentous fungi counts on all materials examined ([9]; 200 times solution sprayed): 1.1 × 10^2 cfu/ml
average value of viable filamentous fungi counts on all materials examined ([9]; 500 times solution sprayed): 7.8 × 10^2 cfu/ml
average value of viable filamentous fungi counts on all materials examined ([10]; 2 times solution sprayed): 0 cfu/ml
average value of viable filamentous fungi counts on all materials examined ([10]; 5 times solution sprayed): 0 cfu/ml
average value of viable filamentous fungi counts on all materials examined ([10]; 25 times solution sprayed): 0 cfu/ml
average value of viable filamentous fungi counts on all materials examined ([10]; 50 times solution sprayed): 0 cfu/ml
average value of viable filamentous fungi counts on all materials examined ([10]; 100 times solution sprayed): 0 cfu/ml
average value of viable filamentous fungi counts on all materials examined ([10]; 200 times solution sprayed): 2.5 × 10^2 cfu/ml
average value of viable filamentous fungi counts on all materials examined ([10]; 500 times solution sprayed): 3.1 × 10^2 cfu/ml
average value of viable filamentous fungi counts on all materials examined ([11]; 2 times solution sprayed): 0 cfu/ml
average value of viable filamentous fungi counts on all materials examined ([11]; 5 times solution sprayed): 0 cfu/ml
average value of viable filamentous fungi counts on all materials examined ([11]; 25 times solution sprayed): 0 cfu/ml
average value of viable filamentous fungi counts on all materials examined ([11]; 50 times solution sprayed): 0 cfu/ml
average value of viable filamentous fungi counts on all materials examined ([11]; 100 times solution sprayed): 0 cfu/ml
average value of viable filamentous fungi counts on all materials examined ([11]; 200 times solution sprayed): 1.5 × 10^2 cfu/ml
average value of viable filamentous fungi counts on all materials examined ([11]; 500 times solution sprayed): 2.7 × 10^2 cfu/ml
average value of viable filamentous fungi counts on all materials examined ([12]; 2 times solution sprayed): 0 cfu/ml
average value of viable filamentous fungi counts on all materials examined ([12]; 5 times solution sprayed): 0 cfu/ml
average value of viable filamentous fungi counts on all materials examined ([12]; 25 times solution sprayed): 0 cfu/ml
average value of viable filamentous fungi counts on all materials examined ([12]; 50 times solution sprayed): 0 cfu/ml
average value of viable filamentous fungi counts on all materials examined ([12]; 100 times solution sprayed): 0 cfu/ml
average value of viable filamentous fungi counts on all materials examined ([12]; 200 times solution sprayed): 1.7 × 10^2 cfu/ml
average value of viable filamentous fungi counts on all materials examined ([12]; 500 times solution sprayed): 1.0 × 10^2 cfu/ml
sterilization in material disinfection test (in words) [13]: complete sterilization
